In patent publication US20260137703A1, “2-AMINO-PYRIDO[2,3-D]PYRIMIDIN-7(8H)-ONE AND 7-AMINO-1-PYRIMIDO[4,5-D]PYRIMIDIN-2(1 H)-ONE DERIVATIVES AS EGFR INHIBITORS FOR THE TREATMENT OF CANCER” (Cancer Research Technology Limited, priority 2022, published 2026) one finds IC50 data, which are given here for 17 compounds.

Assay [1] addresses T1, Phospho-EGFR (Tyr1068) in H1975 C797S cells (CRISPR-edited EGFR C797S) (Homo sapiens, UniProt P00533, C797S/L858R/T790M).
T1 construct: host or cells: H1975 C797S (CRISPR-edited)
Briefly: HTRF pEGFR/total EGFR in H1975 C797S cells. It counts as cell-based. Particulars: ratio pEGFR/total EGFR, compound 3 hours. The protocol:
[…]. Once adhered (after 24 h) cells were treated with compounds dissolved in DMSO at a final concentration of 0.1% DMSO in media. Compounds were diluted in media then added to cells for 3 hours in duplicate. Compound and media were removed from the cells, then 50 ul of HTRF lysis buffer was added (lysis buffer was diluted from 4× stock to 1× in DI water, with 1% blocking agent also added). Cells were lysed on a plate shaker (2000 rpm) for 30 minutes at room temperature. pEGFR expression was monitored using the Cisbio Phospho-EGFR (Tyr1068) cellular kit (64EG1PEH). Total EGFR expression was monitored using the Cisbio Total EGFR cellular kit (64NG1PEH) as per manufacturer's instructions. Fluorescence emission was read at two different wavelengths (665 nm and 620 nm) on a PheraStar. Results were calculated as ratio of pEGFR/total EGFR and then percentage of 0 μM control.
In general terms: Time-resolved FRET reads energy transfer from a long-lived donor to a nearby acceptor.

Assay [2] deals with CtermHisTag-mEGFR Wild type (Homo sapiens, UniProt P00533). As to the kind of experiment: biochemical.
Assay [3] addresses T2, Phospho-EGFR (Tyr1068) in H1975 cells (Homo sapiens, UniProt P00533, L858R/T790M).
T2 construct: host or cells: H1975
As to the kind of experiment: HTRF pEGFR/total EGFR in H1975 cells. It counts as cell-based. Conditions: ratio pEGFR/total EGFR, compound 3 hours. The protocol: H1975 cells (ATCC CRL-5908) were plated at 20,000 cells per well in 96 well plates and placed at 37° C. 5% CO2. Once adhered (after 24 h) cells were treated with compounds dissolved in DMSO at a final concentration of 0.1% DMSO in media. Compounds were diluted in media then added to cells for 3 hours in duplicate. Compound and media were removed from the cells, then 50 ul of HTRF lysis buffer is added (lysis buffer was diluted from 4× stock to 1× in DI water, with 1% blocking agent also added). Cells were lysed on a plate shaker (2000 rpm) for 30 minutes at room temperature. pEGFR expression was monitored using the Cisbio Phospho-EGFR (Tyri068) cellular kit (64EG1PEH). Total EGFR expression was monitored using the Cisbio Total EGFR cellular kit (64NG1PEH) as per manufacturer's instructions. Fluorescence emission was read at two different wavelengths (665 nm and 620 nm) on a PheraStar. Results were calculated as ratio of pEGFR/total EGFR and then percentage of 0 μM control.

For assay [4], the target named is T3, Phospho-EGFR (Tyr1068) in A431 cells (Homo sapiens, UniProt P00533).
T3 construct: endogenous in cells; host or cells: A431
Briefly: HTRF pEGFR/total EGFR in A431 cells with EGF stimulation. It counts as cell-based. Particulars: ratio pEGFR/total EGFR, compound 2.5 hours then 100 ng/ml EGF 30 mins. The protocol:
Cells were plated at 20,000 cells per well in 96 well plates and placed at 37° C. 5% CO2. Once adhered (after 24 h) cells were treated with compounds dissolved in DMSO at a final concentration of 0.1% DMSO in media. Compounds were diluted in media then added to cells for 2.5 hours in duplicate, 100 ng/ml EGF (ThermoFisher, PHG0311) was added to all compound treated cells as well as a control for 30 mins. Compound and media were removed from the cells, then 50 ul of HTRF lysis buffer was added (lysis buffer was diluted from 4× stock to 1× in DI water, with 1% blocking agent also added). Cells were lysed on a plate shaker (2000 rpm) for 30 minutes at room temperature. pEGFR expression was monitored using the Cisbio Phospho-EGFR (Tyr1068) cellular kit (64EG1PEH). Total EGFR expression was monitored using the Cisbio Total EGFR cellular kit (64NG1PEH) as per manufacturer's instructions. Fluorescence emission was read at two different wavelengths (665 nm and 620 nm) on a PheraStar. Results were calculated as ratio of pEGFR/total EGFR and then percentage of 0 μM control.

SMILES strings stand for the structures.

T3 sequence (P00533 25-1210): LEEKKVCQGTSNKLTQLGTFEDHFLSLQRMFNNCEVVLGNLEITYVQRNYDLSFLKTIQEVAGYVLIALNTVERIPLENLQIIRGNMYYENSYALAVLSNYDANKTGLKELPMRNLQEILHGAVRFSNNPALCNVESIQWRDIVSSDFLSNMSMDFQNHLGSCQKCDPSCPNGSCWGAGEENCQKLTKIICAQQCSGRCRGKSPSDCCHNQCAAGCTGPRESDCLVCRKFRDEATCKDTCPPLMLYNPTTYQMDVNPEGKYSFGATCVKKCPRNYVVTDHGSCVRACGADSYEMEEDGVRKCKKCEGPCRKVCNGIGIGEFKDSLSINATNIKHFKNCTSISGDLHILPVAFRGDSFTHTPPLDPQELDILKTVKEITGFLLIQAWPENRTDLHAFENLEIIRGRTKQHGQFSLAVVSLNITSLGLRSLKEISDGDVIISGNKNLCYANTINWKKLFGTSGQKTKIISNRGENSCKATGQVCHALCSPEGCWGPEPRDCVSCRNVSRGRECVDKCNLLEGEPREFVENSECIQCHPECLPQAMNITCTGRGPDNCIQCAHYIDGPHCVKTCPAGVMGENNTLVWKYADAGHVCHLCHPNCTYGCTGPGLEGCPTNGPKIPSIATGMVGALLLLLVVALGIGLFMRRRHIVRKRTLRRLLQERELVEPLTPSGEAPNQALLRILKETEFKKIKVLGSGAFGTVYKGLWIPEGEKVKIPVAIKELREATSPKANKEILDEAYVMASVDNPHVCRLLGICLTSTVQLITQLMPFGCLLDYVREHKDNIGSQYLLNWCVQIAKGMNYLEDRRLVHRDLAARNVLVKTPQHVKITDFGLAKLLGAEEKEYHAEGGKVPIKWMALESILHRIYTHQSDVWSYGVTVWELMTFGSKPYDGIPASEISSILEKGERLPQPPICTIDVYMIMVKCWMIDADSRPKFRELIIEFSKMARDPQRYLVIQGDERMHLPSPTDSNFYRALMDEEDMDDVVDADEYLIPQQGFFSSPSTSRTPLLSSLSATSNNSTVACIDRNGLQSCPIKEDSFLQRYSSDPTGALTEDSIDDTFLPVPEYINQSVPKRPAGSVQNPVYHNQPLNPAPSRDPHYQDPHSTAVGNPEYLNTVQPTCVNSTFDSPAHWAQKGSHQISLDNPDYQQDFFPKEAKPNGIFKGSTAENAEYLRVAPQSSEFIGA
T1 sequence (P00533 25-1210 T790M/C797S/L858R): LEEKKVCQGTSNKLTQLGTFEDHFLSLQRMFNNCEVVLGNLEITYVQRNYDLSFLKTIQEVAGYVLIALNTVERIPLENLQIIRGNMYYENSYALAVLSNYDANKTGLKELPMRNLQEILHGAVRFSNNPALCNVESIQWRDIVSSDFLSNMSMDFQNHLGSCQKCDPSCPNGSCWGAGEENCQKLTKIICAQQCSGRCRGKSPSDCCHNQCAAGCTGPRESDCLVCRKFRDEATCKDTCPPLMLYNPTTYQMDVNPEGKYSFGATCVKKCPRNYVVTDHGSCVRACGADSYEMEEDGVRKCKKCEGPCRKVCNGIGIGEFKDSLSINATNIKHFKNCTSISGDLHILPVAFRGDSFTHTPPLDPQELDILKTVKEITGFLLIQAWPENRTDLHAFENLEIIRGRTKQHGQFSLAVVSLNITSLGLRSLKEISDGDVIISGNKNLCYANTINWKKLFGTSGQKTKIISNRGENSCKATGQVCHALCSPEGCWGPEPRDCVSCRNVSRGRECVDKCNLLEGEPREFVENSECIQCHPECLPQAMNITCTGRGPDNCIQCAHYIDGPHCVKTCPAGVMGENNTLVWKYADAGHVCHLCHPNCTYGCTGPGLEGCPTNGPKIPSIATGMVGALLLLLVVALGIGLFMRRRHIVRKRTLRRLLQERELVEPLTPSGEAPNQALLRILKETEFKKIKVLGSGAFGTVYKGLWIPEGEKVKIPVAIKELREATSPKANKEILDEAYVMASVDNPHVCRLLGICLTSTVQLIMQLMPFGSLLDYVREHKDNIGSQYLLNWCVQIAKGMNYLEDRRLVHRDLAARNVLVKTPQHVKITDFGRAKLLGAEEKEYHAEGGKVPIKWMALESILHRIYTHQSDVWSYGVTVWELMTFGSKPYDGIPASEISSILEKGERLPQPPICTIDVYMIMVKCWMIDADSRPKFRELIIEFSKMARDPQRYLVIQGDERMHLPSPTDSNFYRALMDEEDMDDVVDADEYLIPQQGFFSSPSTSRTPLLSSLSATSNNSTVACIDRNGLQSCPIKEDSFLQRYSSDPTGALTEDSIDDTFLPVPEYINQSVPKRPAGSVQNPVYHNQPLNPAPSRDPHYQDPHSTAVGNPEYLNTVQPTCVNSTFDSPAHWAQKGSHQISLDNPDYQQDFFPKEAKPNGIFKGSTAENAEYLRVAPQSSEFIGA
T2 sequence (P00533 25-1210 T790M/L858R): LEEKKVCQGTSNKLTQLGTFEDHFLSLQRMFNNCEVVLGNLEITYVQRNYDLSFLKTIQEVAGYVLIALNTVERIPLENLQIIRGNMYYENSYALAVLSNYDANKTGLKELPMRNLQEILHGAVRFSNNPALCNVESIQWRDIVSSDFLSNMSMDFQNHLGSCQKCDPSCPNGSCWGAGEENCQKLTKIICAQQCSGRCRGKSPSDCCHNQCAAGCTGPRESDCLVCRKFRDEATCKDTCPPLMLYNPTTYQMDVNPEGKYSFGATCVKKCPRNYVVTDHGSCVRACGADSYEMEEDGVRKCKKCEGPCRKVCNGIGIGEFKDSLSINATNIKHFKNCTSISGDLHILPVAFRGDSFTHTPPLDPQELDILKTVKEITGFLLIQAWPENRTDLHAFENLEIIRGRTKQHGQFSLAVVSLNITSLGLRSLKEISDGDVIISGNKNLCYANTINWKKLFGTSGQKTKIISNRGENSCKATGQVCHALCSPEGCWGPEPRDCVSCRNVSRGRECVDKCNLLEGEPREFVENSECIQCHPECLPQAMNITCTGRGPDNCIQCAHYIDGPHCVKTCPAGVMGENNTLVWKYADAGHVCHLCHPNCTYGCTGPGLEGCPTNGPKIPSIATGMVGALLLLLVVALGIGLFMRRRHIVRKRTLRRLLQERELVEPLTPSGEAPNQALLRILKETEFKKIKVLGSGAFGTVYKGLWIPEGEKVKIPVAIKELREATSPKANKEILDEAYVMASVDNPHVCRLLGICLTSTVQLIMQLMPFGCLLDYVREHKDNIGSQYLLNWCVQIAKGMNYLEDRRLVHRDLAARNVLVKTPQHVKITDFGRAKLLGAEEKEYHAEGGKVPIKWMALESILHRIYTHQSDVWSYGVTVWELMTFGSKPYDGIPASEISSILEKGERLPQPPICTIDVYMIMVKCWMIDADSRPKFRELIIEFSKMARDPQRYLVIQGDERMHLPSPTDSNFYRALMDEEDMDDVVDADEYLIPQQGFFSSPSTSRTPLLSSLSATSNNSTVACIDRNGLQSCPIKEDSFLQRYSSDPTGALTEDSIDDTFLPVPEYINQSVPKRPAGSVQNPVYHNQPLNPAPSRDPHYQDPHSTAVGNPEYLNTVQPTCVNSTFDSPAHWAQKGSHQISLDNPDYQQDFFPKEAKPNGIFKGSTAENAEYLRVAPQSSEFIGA
Chain of CtermHisTag-mEGFR Wild type (P00533 whole entry): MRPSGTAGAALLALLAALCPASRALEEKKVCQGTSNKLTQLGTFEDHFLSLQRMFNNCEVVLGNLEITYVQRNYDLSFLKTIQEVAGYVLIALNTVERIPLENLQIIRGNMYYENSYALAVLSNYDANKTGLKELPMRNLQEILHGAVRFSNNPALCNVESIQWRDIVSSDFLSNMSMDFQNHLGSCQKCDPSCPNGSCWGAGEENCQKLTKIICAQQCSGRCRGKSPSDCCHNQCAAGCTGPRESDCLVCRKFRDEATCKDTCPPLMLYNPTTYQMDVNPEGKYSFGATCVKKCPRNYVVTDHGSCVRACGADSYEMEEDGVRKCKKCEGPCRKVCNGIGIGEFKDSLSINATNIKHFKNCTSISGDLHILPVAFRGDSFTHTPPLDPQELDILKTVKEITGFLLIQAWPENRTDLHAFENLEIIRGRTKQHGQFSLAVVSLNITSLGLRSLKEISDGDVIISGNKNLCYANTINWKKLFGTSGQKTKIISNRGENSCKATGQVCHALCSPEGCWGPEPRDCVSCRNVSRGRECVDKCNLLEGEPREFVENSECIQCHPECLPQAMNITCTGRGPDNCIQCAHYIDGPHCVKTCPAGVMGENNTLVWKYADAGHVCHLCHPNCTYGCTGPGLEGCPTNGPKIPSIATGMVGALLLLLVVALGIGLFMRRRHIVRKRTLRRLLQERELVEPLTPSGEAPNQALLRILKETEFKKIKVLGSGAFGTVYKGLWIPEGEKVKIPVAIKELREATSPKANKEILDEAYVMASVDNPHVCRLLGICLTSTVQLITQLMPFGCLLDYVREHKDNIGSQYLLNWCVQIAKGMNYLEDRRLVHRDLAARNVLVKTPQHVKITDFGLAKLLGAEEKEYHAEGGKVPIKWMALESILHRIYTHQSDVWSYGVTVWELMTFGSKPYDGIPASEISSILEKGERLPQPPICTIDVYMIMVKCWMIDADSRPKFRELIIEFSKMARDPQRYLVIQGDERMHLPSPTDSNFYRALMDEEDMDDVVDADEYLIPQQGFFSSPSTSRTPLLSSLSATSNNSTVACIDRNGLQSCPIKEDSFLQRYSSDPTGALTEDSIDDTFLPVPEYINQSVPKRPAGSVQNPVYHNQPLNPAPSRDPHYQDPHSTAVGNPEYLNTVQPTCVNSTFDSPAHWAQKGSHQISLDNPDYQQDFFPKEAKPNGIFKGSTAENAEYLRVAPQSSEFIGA

Broadly, the IC50 is the concentration at which inhibition is half-maximal. In the case of `C#Cc1c(-c2ccncc2Cl)c(=O)n(C)c2nc(Nc3ccc(N(C)CCN(C)C)cc3)ncc12` [Example 139, 6-(3-chloropyridin-4-yl)-2-[(4-{[2-(dimethylamino)ethyl](methyl)amino}phenyl)amino]-5-ethynyl-8-methylpyrido [2,3-d]pyrimidin-7-one], the IC50 in assay [1] was 1000 to 3000 nM; in assay [2], below 1000 nM; in assay [3], 1000 to 3000 nM; in assay [4], above 3000 nM.

On to `C#Cc1cc(=O)n(-c2ccccc2)c2nc(Nc3ccc(N4CCC(N(C)C)CC4)cc3)ncc12` [Example 33, 2-({4-[4-(Dimethylamino)piperidin-1-yl]phenyl}amino)-5-ethynyl-8-phenylpyrido[2,3-d]pyrimidin-7-one], for which the concentration for half-maximal inhibition (IC50) in assay [1] is below 500 nM; in assay [2], below 1000 nM; in assay [3], below 500 nM; in assay [4], 1000 to 3000 nM.

Consider `C#Cc1c(C)c(=O)n(Cc2ncc[nH]2)c2nc(Nc3ccc(N4CCN(C)CC4)cc3)ncc12` [Example 177, 5-Ethynyl-8-(1H-imidazol-2-ylmethyl)-6-methyl-2-{[4-(4-methylpiperazin-1-yl)phenyl]amino}pyrido[2,3-d]pyrimidin-7-one], for which the IC50 in assay [1] was above 3000 nM; in assay [2], 1000 to 10000 nM; in assay [3], above 3000 nM; in assay [4], above 3000 nM.

As to `C#Cc1cc(=O)n(C)c2nc(Nc3ccc(N4CCN(C)CC4)cc3OC)ncc12` [Example 49, 5-Ethynyl-2-{[2-methoxy-4-(4-methylpiperazin-1-yl)phenyl]amino}-8-methylpyrido[2,3-d]pyrimidin-7-one], the IC50 in assay [1] is 500 to 1000 nM; in assay [2], below 1000 nM; in assay [3] it was below 500 nM; in assay [4], above 3000 nM.

For `C#Cc1cc(=O)n(C)c2nc(Nc3ccc(N4CCN(C)CC4)c(OCC4CCCC4)c3)ncc12` [Example 211, 2-((3-(Cyclopentylmethoxy)-4-(4-methylpiperazin-1-yl)phenyl)amino)-5-ethynyl-8-methylpyrido[2,3-d]pyrimidin-7(8H)-one], the IC50 was below 500 nM in assay [1], below 1000 nM in assay [2], below 500 nM in assay [3] and above 3000 nM in assay [4].

On to `C#Cc1cc(=O)n(-c2ccccc2)c2nc(Nc3ccc(C4CCN(C)CC4)cc3)ncc12` [Example 21, 5-Ethynyl-2-{[4-(1-methylpiperidin-4-yl)phenyl]amino}-8-phenylpyrido[2,3-d]pyrimidin-7-one], for which the IC50 in assay [1] was below 500 nM; in assay [2] it was below 1000 nM; in assay [3], below 500 nM; in assay [4] it was 1000 to 3000 nM.

In the case of `C#Cc1c(-c2ccccc2Cl)c(=O)n(C)c2nc(Nc3ccc(OCCN(C)C)cc3)ncc12` [Example 129, 6-(2-chlorophenyl)-2-({4-[2-(dimethylamino)ethoxy]phenyl}amino)-5-ethynyl-8-methylpyrido[2,3-d]pyrimidin-7-one], the IC50 in assay [1] was above 3000 nM; in assay [2], below 1000 nM; in assay [3], 500 to 1000 nM; in assay [4], 500 to 1000 nM.

Consider `C#Cc1c(C)c(=O)n(Cc2cnco2)c2nc(Nc3ccc(N4CCN(C)CC4)cc3)ncc12` [Example 176, 5-Ethynyl-6-methvl-2-{[4-(4-methylpiperazin-1-yl)phenyl]aminol}-8-(1,3-oxazol-5-ylmethyl)pyrido[2,3-d]pyrimidin-7-one], for which the IC50 was 1000 to 3000 nM in assay [1], below 1000 nM in assay [2], 1000 to 3000 nM in assay [3] and above 3000 nM in assay [4].

As to `C#Cc1cc(=O)n2c3nc(ncc13)Nc1ccc(N3CCN(CCOC)CC3)c(c1)OCCCC2` [Example 241, 1^5-Ethynyl-3^4-(4-(2-methoxyethyl)piperazin-1-yl)-1^7,1^8-dihydro-4-oxa-2-aza-1(2,8)-pyrido[2,3-d]pyrimidina-3(1,3)-benzenacyclooctaphan-1^7-one], the IC50 is below 500 nM in assay [1], below 1000 nM in assay [2], below 500 nM in assay [3] and 500 to 1000 nM in assay [4].

Turning to `C#Cc1cc(=O)n2c3nc(ncc13)Nc1ccc(N3CCN(C)CC3)c(c1)COCCC2` [Example 196, 1^5-Ethynyl-34-(4-methylpiperazin-1-yl)-1^7, 1^8-dihydro-5-oxa-2-aza-1(2,8)-pyrido[2,3-d]pyrimidina-3(1,3)-benzenacyclooctaphan-1^7-one], the IC50 in assay [1] was above 3000 nM; in assay [2], above 10000 nM; in assay [3], above 3000 nM; in assay [4], above 3000 nM.

For the compound `C#Cc1cc(=O)n(CC2CCNC2=O)c2nc(Nc3ccc(N4CCN(C)CC4)cc3)ncc12` (centres unmarked) [Example 119, 3-[(5-ethynyl-2-{[4-(4-methylpiperazin-1-yl)phenyl]amino}-7-oxopyrido[2,3-d]pyrimidin-8-yl)methyl]pyrrolidin-2-one], the IC50 is 500 to 1000 nM in assay [1], above 10000 nM in assay [2], 500 to 1000 nM in assay [3] and above 3000 nM in assay [4].

Consider `C#Cc1cc(=O)n(C)c2nc(Nc3ccc(N4CCN(C)CC4)c(OCCC(C)C)c3)ncc12` [Example 216, 5-Ethynyl-2-((3-(isopentyloxy)-4-(4-methylpiperazin-1-yl)phenyl)amino)-8-methylpyrido[2,3-d]pyrimidin-7(8H)-one], for which the IC50 in assay [1] is below 500 nM; in assay [2], below 1000 nM; in assay [3], below 500 nM; in assay [4], 1000 to 3000 nM.

As to `C#Cc1cc(=O)n(C2CCNC2)c2nc(Nc3ccc(N4CCN(C)CC4)cc3)ncc12` (centres unmarked) [Example 106, 5-ethynyl-2-{[4-(4-methylpiperazin-1-yl)phenyl]amino}-8-(pyrrolidin-3-yl)pyrido[2,3-]pyrimidin-7-one], the IC50 in assay [1] is 1000 to 3000 nM; in assay [2] it was above 10000 nM; in assay [3] it was 1000 to 3000 nM; in assay [4], above 3000 nM.

In the case of `C#Cc1cc(=O)n2c3nc(ncc13)Nc1ccc(N3CCN(C)CC3)c(c1)CNC(=O)CCC2` [Example 237, 1^5-Ethynyl-3^4-(4-methylpiperazin-1-yl)-1^7,1^8-dihydro-2,5-diaza-1(2,8)-pyrido[2,3-d]pyrimidina-3(1,3)-benzenacyclononaphane-1^7,6-dione], the IC50 in assay [1] is 500 to 1000 nM; in assay [2], below 1000 nM; in assay [3] it was below 500 nM; in assay [4] it was above 3000 nM.

Consider `C#Cc1cc(=O)n(-c2ccc(NC(=O)COC(C)=O)cc2)c2nc(Nc3ccccc3OC)ncc12` [Example 64, 2-((4-(5-Ethynyl-2-((2-methoxyphenyl)amino)-7-oxopyrido[2,3-d]pyrimidin-8(7H)-yl)phenyl)amino)-2-oxoethyl acetate], for which the IC50 is above 3000 nM in assay [1], 1000 to 10000 nM in assay [2], above 3000 nM in assay [3] and above 3000 nM in assay [4].

Turning to `C#Cc1cc(=O)n(-c2ccccc2)c2nc(Nc3ccc(N4CCN(C)CC4)c(CC)c3)ncc12` [Example 24, 2-{[3-Ethyl-4-(4-methylpiperazin-1-yl)phenyl]amino}-5-ethynyl-8-phenylpyrido[2,3-d]pyrimidin-7-one], the IC50 was below 500 nM in assay [1], below 1000 nM in assay [2], below 500 nM in assay [3] and above 3000 nM in assay [4].

`C#Cc1cc(=O)n(-c2ccc(NC(=O)C=C)cc2)c2nc(Nc3ccccc3OC)ncc12` [Example 88, N-(4-(5-Ethynyl-2-((2-methoxyphenyl)amino)-7-oxopyrido[2,3-d]pyrimidin-8(7H)-yl)phenyl)acrylamide]: the IC50 was above 3000 nM in assay [1], 1000 to 10000 nM in assay [2], above 3000 nM in assay [3] and above 3000 nM in assay [4].
